Data published in patent publication US20230158057A1, “COMPOSITIONS AND METHODS FOR THE TREATMENT OF PAIN” (Duke University, priority 2020, published 2023).
“Also recorded” adds a separate entry of the source.

Key:
naïve mice [1] = assay: Conditioned place preference (CPP) assay in naïve mice; details: i.t., morphine 2 nmol, DMXAA or ADU-S100 35 nmol
Procedure: All mice underwent 3 d of preconditioning habituation in a temperature- and humidity-controlled room under low-light conditions between 08:00-16:00 in a two compartment CPP chamber (Med Associates Inc.). The two compartments differed by both visual and tactile cues. On the 4th day, animal behavior was video-recorded using a webcam connected to a laptop computer, and animal movement was automatically tracked for 15 minutes using the ANY-Maze software (Stoelting). […] On the conditioning day(s) (day 5 for single trial; day 5-7 for repeated trials), two pairing sessions were performed, with vehicle pairing in the AM session and drug treatment (e.g., vehicle or drug) in the PM session, separated by 4 h. In the AM session, mice always received vehicle (10 μl saline, delivered via i.t. injection under isoflurane anesthesia) and were immediately placed in their preferred CPP chamber for 2 h. […] 24 h after the completion of the pairing experiments, mice were placed in the CPP test box with access to both chambers and behavior was recorded for 15 minutes and analyzed using the ANY-Maze software for chamber preference. CPP score was calculated as the inverse of the time spent in the preferred chamber according to: [post-preference (sec)—pre-preference (sec)]. Vehicle served as a negative control for these experiments, while morphine (three trials/naïve mice) or clonidine (single trial/ongoing pain) served as positive controls.

naïve mice [2] = assay: Naloxone reversal of antinociception; format: in vivo, mouse; details: naloxone 10 mg/kg i.p.; morphine 2 nmol i.t., DMXAA or ADU-S100 35 nmol i.t.
Procedure: Following naloxone delivery, mice were tested within 15 minutes. For the experiments testing whether mice developed tolerance to the effects of STING agonists, vehicle or DMXAA (35 nmol) were administered via i.t. injection. Naïve mice received five single injections at D0, D3, D6, D9, and D12, with testing each day 4 h after injection. SNI mice received injections on two consecutive days beginning on D7 (D7 and D8) and every 48 h afterwards following the conclusion of sensory testing (D10, D12, D14, D16, and D18). Spinal cords (L4-L5) were collected for analysis of glial cell activation at D21 following SNI.

[3] = system: mice with intrafemoral Lewis lung carcinoma (LLC); assay: LLC bone cancer pain model, systemic (i.p.) treatment, behavior tests and body weight; format: in vivo, mouse; details: for spontaneous and ongoing pain (flinching, guarding): d14; for body weight / cancer-induced cold allodynia / cancer-induced mechanical allodynia (paw withdrawal threshold): twice i.p.; for cancer-induced mechanical allodynia (paw withdrawal threshold): DMXAA, ADU-S100 20 mg/kg, ZA 100 μg/kg; for acute effect on bone cancer pain: d11, 4 h after single i.p. injection
Procedure: Bone cancer pain model. The murine cell lines LLC1, LL/2-Luc2 or E0771 were lightly digested using 0.05% trypsin, followed by centrifugation to remove poorly digested cell clusters. Cells were then resuspended in PBS at a concentration of 1×10^8 cells/ml. The inoculation was performed as previously described (Wang, K. et al. “PD-1 blockade inhibits osteoclast formation and murine bone cancer pain.” The Journal of clinical investigation, (2020); Wang, Z. et al. “Anti-PD-1 treatment impairs opioid antinociception in rodents and nonhuman primates.” Sci Transl Med 12 (2020)). Briefly, mice were anesthetized with 4% isoflurane and the left leg was shaved and the skin disinfected with 10% povidone-iodine and 75% ethanol. A superficial incision (0.5-1 cm) was made near the knee joint, exposing the patellar ligament. […] The syringe contents were slowly injected into the femoral cavity over a 2-minute interval. To prevent further leakage of tumor cells outside of the bone cavity, the outer injection site was sealed with silicone adhesive (Kwik-Sil, World Precision Instruments, US). Animals with surgery related movement dysfunction or with outside bone tumor injection were excluded from the study. Drug treatment. […] All other reagents were dissolved in sterile saline or PBS. For experiments utilizing rabbit anti-IFN-α or -β neutralizing antibodies, a polyclonal rabbit IgG antibody served as the control. […] Behavior tests. All the behavioral tests were conducted in a blinded manner and performed during between the hours of 9:00-16:00. Animals were habituated in a light and humidity controlled testing environment for at least 2 days prior to baseline testing. For Von Frey testing, mice were confined to individual 5×5 cm boxes placed on an elevated wire grid. A blinded experimenter stimulated their hindpaws using a series of von Frey filaments with logarithmically increasing stiffness (0.02-2.56 g, Stoelting). Each filament was applied perpendicularly to the central plantar surface. The 50% paw withdrawal threshold was determined using Dixon's up-down method.

RAW 264.7 cells = assay: In vitro osteoclastogenesis, RANKL-treated RAW 264.7 cells, TRAP staining; format: cell-based, mouse; details: RANKL 35 ng/ml, 6 days, escalating dose
Procedure: (§1) In vitro induction of osteoclastogenesis and TRAP staining. For in vitro drug treatment, the RAW 264.7 cells were incubated with 35 ng/ml RANKL for six days. Isolated bone marrow cells were cultured overnight in α-MEM media containing 10% fetal bovine serum and 1% antibiotic-antimycotic solution. The suspended cells were collected and incubated with 20 ng/ml MCSF for 3 days to obtain bone marrow-derived macrophage (BMDM). The attached cells were further activated by 35 ng/ml RANKL and 20 ng/ml MCSF. Drug treatment was performed in tandem with RANKL. Culture medium and co-cultured reagents were changed every 3 days. After 6 or 7 days of incubation, the cells were fixed by 4% PFA and stained with warm TRAP staining solution (TRAP kit, Sigma-Aldrich, SLBW4002) for 10-30 min at 37° C.

[4] = system: bone marrow-derived macrophages (BMDM); assay: In vitro osteoclastogenesis from bone marrow-derived macrophages (BMDM), TRAP staining; format: cell-based, mouse; details: 30 μM, WT vs STING^gt/gt or Ifnar1^−/−
Procedure: as §1

IFN-β = IFN-β ELISA on BMDM culture medium; format: cell-based, mouse; details: 24 h after incubation; IFN-β induction much greater
Procedure: ELISA. Mouse high-sensitivity IFN-α ELISA kit (42115-1) and IFN-β ELISA kit (42410-1) were purchased from PBL Assay Science. Mouse CTX-I ELISA kit (AC-06F1) and mouse PINP ELISA kit (AC-33F1) were purchased from Immunodiagnostic Systems. ELISA was performed using culture medium, serum, and bone marrow lysates. Serum was obtained from whole blood that was collected from a submandibular vein via facial vein puncture, coagulated for 30 minutes at room temperature, followed by centrifugation (2,000 ×g for 10 min, 4° C.) and collection of the supernatant (serum). Bone marrow was homogenized in a lysis buffer containing protease inhibitors at 4° C. for 30 minutes. ELISA was conducted in accordance with the manufacturer's instructions. A standard curve was performed for each experiment.
as §1, with “After 6 or 7 days of incubation, the cells were fixed by 4% PFA and stained with warm TRAP staining solution (TRAP kit, Sigma-Aldrich, SLBW4002) for 10-30 min at 37° C.” left out

Row | SMILES | conditioned place preference, repeated pairing (naïve mice [1]) | effect of naloxone on the antinociception of the substance (naïve mice [2]) | mechanical and cold allodynia, WT and Rag1^−/− ([3]; 20 mg/kg i.p. d3 and d7) | mechanical and cold allodynia, WT vs Ifnar1^−/− ([3]; 20 mg/kg i.p. d3 and d7) | mechanical and cold allodynia, WT vs STING^gt/gt ([3]; 20 mg/kg i.p. d3 and d7) | mechanical or cold allodynia in Batf3^−/− mice ([3]; 20 mg/kg i.p. d3 and d7) | acute effect on mechanical and cold allodynia, WT vs STING^gt/gt or Ifnar1^−/− ([3]; 20 mg/kg i.p., 4 h) | spontaneous and ongoing pain (flinching, guarding) ([3]; LLC model) | body weight ([3]; LLC model) | cancer-induced cold allodynia ([3]; LLC model) | cancer-induced mechanical allodynia (paw withdrawal threshold) ([3]; LLC model) | acute effect on bone cancer pain [3] | acute antinociceptive effects, WT vs Ifnar1-cKO ([3]; single 20 mg/kg i.p.) | osteoclast differentiation (RAW 264.7 cells) | osteoclast formation from BMDM [4] | IFN-β levels in the culture medium (IFN-β) | withdrawal frequency to low-threshold stimulation (0.16 g Von Frey filament) ([3]; LLC model, i.p. at d3 and d10)
1 | Cc1ccc2c(=O)c3cccc(CC(=O)O)c3oc2c1C [DMXAA, 2-(5,6-dimethyl-9-oxo-9H-xanthen-4-yl)acetic acid] | neither DMXAA nor ADU-S100 could induce place preference | had no effect | reduced by DMXAA treatment in both WT and Rag1^−/− mice at early stages (7 d and 10 d), but not at later stages | effectively attenuated cancer-induced mechanical allodynia and cold allodynia in WT mice but not Ifnar1^−/− mice | significantly attenuated mechanical and cold allodynia in WT mice, and this effect was abolished in STING^gt/gt mice | could attenuate mechanical allodynia or cold allodynia in Batf3^−/− mice on d7 and d10 but not day 14 | could reduce mechanical allodynia and cold allodynia in WT mice but not in STING^gt/gt mice or Ifnar1^−/− mice | attenuated measures of spontaneous and ongoing pain | no differences in body weight; also recorded: did not see body weight changes | significantly reduced | significantly reduced mechanical allodynia on d7, d10 and d14 | substantial reduction in mechanical allodynia, cold allodynia, and spontaneous pain | present in WT, but not Ifnar1-cKO littermates | dose dependently inhibited osteoclast differentiation | could significantly inhibit osteoclast formation from BMDM from WT mice but not from STING^gt/gt or Ifnar1^−/− mice | drastic increase in IFN-α and IFN-β levels | 
2 | Nc1ncnc2c1ncn2[C@@H]1O[C@@H]2COP(=O)([S-])O[C@@H]3[C@H](O)[C@@H](COP([O-])(=S)O[C@H]2[C@H]1O)O[C@H]3n1cnc2c(N)ncnc21.[Na+].[Na+] (stereo partly drawn) [ADU-S100, (2′-5′)-[P(R)]-5′-O-[(R)-hydroxymercaptophosphinyl]-P-thioadenylyl-adenosine cyclic dinucleotide] | neither DMXAA nor ADU-S100 could induce place preference | had no effect |  |  |  |  |  | exhibited reduced spontaneous and ongoing pain | no effect on overall body weight | reduced cold allodynia on both d10 and d14 | could significantly attenuate mechanical allodynia in both measures on d10 and d14 | substantial reduction in mechanical allodynia, cold allodynia, and spontaneous pain |  | dose dependently inhibited osteoclast differentiation | could significantly inhibit osteoclast formation from BMDM from WT mice but not from STING^gt/gt or Ifnar1^−/− mice | drastic increase in IFN-α and IFN-β levels | could significantly attenuate mechanical allodynia in both measures on d10 and d14
